Test results published in ChEMBL document CHEMBL1131074, “Conformational analysis of ketolide, conformations of RU 004 in solution and bound to bacterial ribosomes” (J Med Chem, 1998).

Tests used:
Format in all cases: functional, organism-based
Escherichia coli [1] = test: Pka1 value was evaluated in Escherichia coli MRE600 strain 70S ribosome (Observation 2)
Escherichia coli [2] = test: Pka1 value was evaluated in Escherichia coli MRE600 strain 70S ribosome (Observation 1)
Escherichia coli [3] = test: Pka2 value was evaluated in Escherichia coli MRE600 strain 70S ribosome (Observation 2)
Escherichia coli [4] = test: Pka2 value was evaluated in Escherichia coli MRE600 strain 70S ribosome (Observation 1)

## CC[C@H]1OC(=O)C(C)C(=O)[C@H](C)[C@@H](O[C@@H]2O[C@H](C)C[C@H](N(C)C)[C@H]2O)[C@@](C)(OC)C[C@@H](C)C(=O)[C@H](C)[C@H]2N(NCCCc3ccnc4ccccc34)C(=O)O[C@]12C (some centres undefined)
Escherichia coli [1]
  pKa1: 3
Escherichia coli [2]
  pKa1: 5
Escherichia coli [3]
  pKa2: 6
Escherichia coli [4]
  pKa2: 8
